Experiments:
H^+,K^+-ATPase L809F = H^+,K^+-ATPase L809F (Sus scrofa, UniProt P19156, L810F); test: ATPase assay, L809F mutant
H^+,K^+-ATPase N138D = H^+,K^+-ATPase N138D (Sus scrofa, UniProt P19156, N139D); test: ATPase assay, N138D mutant
H^+,K^+-ATPase D136F = H^+,K^+-ATPase D136F (Sus scrofa, UniProt P19156, D137F); test: ATPase assay, D136F mutant
H^+,K^+-ATPase Y140I = H^+,K^+-ATPase Y140I (Sus scrofa, UniProt P19156, Y141I); test: ATPase assay, Y140I mutant
H^+,K^+-ATPase A335V = H^+,K^+-ATPase A335V (Sus scrofa, UniProt P19156, A336V); test: ATPase assay, A335V mutant
H^+,K^+-ATPase Y799A = H^+,K^+-ATPase Y799A (Sus scrofa, UniProt P19156, Y800A); test: ATPase assay, Y799A mutant
H^+,K^+-ATPase = H^+,K^+-ATPase (Sus scrofa, UniProt P19156); test: Dose-dependent inhibition of H^+,K^+-ATPase activity in the presence of 10 mM KCl
Experimental: Reactions were initiated by incubating at 37 °C using a thermal cycler, and maintained for 1 to 5 h (depending on the activity). Reactions were terminated by withdrawing 40 μL from the 80 μL reactant, and mixing with 80 μL of stop solution comprising 6% ascorbic acid and 2% ammonium molybdate in 1 N HCl, followed by the addition of 120 μL of 2% sodium arsenate, 2% sodium citrate, and 2% acetic acid. The amount of released inorganic phosphate was determined colorimetrically[39] from absorbance at 850 nm by the microplate reader (TECAN).

H^+,K^+-ATPase D136A = H^+,K^+-ATPase D136A (Sus scrofa, UniProt P19156, D137A); test: ATPase assay, D136A mutant
H^+,K^+-ATPase D136I = H^+,K^+-ATPase D136I (Sus scrofa, UniProt P19156, D137I); test: ATPase assay, D136I mutant
H^+,K^+-ATPase D136L = H^+,K^+-ATPase D136L (Sus scrofa, UniProt P19156, D137L); test: ATPase assay, D136L mutant
[1] = target: H^+,K^+-ATPase A335C/C813A (Sus scrofa, UniProt P19156, A336C/C814A); test: ATPase assay, A335C/C813A mutant
H^+,K^+-ATPase WT = target: T1, H^+,K^+-ATPase WT (Sus scrofa, UniProt P19156); test: K^+-competitive inhibition of H^+,K^+-ATPase activity, 96-well ATPase assay, wild-type; type: biochemical, pig; settings: WT
T1 construct: made in house; host or cells: HEK293S GnT1- cells (BacMam baculovirus transduction); permeabilised membrane fractions

H^+,K^+-ATPase D137F = H^+,K^+-ATPase D137F (Sus scrofa, UniProt P19156, D138F); test: ATPase assay, D137F mutant
H^+,K^+-ATPase Y140L = H^+,K^+-ATPase Y140L (Sus scrofa, UniProt P19156, Y141L); test: ATPase assay, Y140L mutant
H^+,K^+-ATPase Y140A = H^+,K^+-ATPase Y140A (Sus scrofa, UniProt P19156, Y141A); test: ATPase assay, Y140A mutant
H^+,K^+-ATPase N138I = H^+,K^+-ATPase N138I (Sus scrofa, UniProt P19156, N139I); test: ATPase assay, N138I mutant
H^+,K^+-ATPase L800F = H^+,K^+-ATPase L800F (Sus scrofa, UniProt P19156, L801F); test: ATPase assay, L800F mutant
H^+,K^+-ATPase D137L = H^+,K^+-ATPase D137L (Sus scrofa, UniProt P19156, D138L); test: ATPase assay, D137L mutant
H^+,K^+-ATPase A339S = H^+,K^+-ATPase A339S (Sus scrofa, UniProt P19156, A340S); test: ATPase assay, A339S mutant
H^+,K^+-ATPase D137N = H^+,K^+-ATPase D137N (Sus scrofa, UniProt P19156, D138N); test: ATPase assay, D137N mutant
H^+,K^+-ATPase L139A = H^+,K^+-ATPase L139A (Sus scrofa, UniProt P19156, L140A); test: ATPase assay, L139A mutant
H^+,K^+-ATPase L139I = H^+,K^+-ATPase L139I (Sus scrofa, UniProt P19156, L140I); test: ATPase assay, L139I mutant
H^+,K^+-ATPase V331A = H^+,K^+-ATPase V331A (Sus scrofa, UniProt P19156, V332A); test: ATPase assay, V331A mutant
H^+,K^+-ATPase A125F = H^+,K^+-ATPase A125F (Sus scrofa, UniProt P19156, A126F); test: ATPase assay, A125F mutant
H^+,K^+-ATPase Y140F = H^+,K^+-ATPase Y140F (Sus scrofa, UniProt P19156, Y141F); test: ATPase assay, Y140F mutant
H^+,K^+-ATPase F332I = H^+,K^+-ATPase F332I (Sus scrofa, UniProt P19156, F333I); test: ATPase assay, F332I mutant

H^+,K^+-ATPase D137N, sequence (P19156 whole entry D138N): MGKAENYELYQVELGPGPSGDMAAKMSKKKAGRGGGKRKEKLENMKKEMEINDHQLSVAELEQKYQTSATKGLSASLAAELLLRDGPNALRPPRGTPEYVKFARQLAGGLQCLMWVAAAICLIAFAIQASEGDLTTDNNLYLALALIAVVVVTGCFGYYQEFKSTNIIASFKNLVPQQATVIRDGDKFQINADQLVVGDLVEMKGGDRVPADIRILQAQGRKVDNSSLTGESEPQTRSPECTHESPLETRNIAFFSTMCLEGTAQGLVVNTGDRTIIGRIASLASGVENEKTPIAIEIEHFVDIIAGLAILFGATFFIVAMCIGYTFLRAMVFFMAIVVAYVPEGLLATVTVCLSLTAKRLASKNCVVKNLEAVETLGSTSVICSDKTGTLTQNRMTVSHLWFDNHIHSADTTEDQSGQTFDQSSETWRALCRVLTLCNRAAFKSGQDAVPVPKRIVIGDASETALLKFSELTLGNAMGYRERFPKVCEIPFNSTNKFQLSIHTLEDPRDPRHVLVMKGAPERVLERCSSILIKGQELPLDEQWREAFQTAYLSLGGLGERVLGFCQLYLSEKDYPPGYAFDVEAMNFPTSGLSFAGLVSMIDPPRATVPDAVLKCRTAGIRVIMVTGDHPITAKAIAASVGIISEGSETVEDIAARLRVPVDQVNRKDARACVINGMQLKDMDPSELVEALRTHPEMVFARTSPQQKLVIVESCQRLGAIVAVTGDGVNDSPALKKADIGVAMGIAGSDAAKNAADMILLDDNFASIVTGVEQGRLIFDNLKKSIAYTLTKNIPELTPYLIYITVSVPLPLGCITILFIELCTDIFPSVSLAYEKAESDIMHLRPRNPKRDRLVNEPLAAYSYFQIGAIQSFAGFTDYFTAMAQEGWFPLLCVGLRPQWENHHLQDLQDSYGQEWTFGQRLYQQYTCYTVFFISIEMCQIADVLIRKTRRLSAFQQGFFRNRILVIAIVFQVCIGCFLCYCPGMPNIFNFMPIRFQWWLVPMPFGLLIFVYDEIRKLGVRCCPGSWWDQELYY
H^+,K^+-ATPase D137N, sequence (P18434 whole entry partner): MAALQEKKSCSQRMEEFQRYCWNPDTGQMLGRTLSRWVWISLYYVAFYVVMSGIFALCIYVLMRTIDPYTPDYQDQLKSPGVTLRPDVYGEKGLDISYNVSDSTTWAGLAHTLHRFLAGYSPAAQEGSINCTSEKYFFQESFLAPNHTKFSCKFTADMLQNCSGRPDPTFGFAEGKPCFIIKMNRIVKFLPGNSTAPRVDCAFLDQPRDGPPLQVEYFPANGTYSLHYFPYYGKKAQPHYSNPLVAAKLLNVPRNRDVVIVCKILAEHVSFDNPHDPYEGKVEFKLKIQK
H^+,K^+-ATPase N138D, sequence (P19156 whole entry N139D): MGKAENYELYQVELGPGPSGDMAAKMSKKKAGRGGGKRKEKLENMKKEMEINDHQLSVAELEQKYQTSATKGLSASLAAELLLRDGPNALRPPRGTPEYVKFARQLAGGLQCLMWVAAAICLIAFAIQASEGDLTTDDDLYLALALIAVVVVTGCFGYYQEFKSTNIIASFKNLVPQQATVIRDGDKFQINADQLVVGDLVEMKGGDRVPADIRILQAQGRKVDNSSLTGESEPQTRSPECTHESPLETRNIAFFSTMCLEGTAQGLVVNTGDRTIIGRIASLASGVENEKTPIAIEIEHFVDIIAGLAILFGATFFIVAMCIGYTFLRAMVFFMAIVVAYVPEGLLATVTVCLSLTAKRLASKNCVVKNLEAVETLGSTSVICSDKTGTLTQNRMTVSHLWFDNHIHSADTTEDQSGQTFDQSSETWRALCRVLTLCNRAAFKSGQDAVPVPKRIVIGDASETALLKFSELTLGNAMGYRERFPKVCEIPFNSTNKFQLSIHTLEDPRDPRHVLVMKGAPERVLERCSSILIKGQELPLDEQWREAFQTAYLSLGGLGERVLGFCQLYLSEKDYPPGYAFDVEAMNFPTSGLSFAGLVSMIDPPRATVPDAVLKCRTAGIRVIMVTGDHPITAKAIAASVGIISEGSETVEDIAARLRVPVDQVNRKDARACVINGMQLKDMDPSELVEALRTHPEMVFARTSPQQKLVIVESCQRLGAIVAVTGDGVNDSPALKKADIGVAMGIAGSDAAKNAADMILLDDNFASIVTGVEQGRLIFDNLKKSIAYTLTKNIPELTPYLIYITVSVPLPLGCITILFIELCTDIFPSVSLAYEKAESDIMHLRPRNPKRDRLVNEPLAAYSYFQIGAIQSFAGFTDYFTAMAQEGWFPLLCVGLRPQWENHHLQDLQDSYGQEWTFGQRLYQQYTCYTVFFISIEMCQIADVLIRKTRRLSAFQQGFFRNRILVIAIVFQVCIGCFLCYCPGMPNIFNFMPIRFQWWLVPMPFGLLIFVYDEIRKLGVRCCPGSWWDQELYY
H^+,K^+-ATPase N138D, sequence (P18434 whole entry partner): as the sequence (P18434 whole entry partner) above
H^+,K^+-ATPase D136A, sequence (P19156 whole entry D137A): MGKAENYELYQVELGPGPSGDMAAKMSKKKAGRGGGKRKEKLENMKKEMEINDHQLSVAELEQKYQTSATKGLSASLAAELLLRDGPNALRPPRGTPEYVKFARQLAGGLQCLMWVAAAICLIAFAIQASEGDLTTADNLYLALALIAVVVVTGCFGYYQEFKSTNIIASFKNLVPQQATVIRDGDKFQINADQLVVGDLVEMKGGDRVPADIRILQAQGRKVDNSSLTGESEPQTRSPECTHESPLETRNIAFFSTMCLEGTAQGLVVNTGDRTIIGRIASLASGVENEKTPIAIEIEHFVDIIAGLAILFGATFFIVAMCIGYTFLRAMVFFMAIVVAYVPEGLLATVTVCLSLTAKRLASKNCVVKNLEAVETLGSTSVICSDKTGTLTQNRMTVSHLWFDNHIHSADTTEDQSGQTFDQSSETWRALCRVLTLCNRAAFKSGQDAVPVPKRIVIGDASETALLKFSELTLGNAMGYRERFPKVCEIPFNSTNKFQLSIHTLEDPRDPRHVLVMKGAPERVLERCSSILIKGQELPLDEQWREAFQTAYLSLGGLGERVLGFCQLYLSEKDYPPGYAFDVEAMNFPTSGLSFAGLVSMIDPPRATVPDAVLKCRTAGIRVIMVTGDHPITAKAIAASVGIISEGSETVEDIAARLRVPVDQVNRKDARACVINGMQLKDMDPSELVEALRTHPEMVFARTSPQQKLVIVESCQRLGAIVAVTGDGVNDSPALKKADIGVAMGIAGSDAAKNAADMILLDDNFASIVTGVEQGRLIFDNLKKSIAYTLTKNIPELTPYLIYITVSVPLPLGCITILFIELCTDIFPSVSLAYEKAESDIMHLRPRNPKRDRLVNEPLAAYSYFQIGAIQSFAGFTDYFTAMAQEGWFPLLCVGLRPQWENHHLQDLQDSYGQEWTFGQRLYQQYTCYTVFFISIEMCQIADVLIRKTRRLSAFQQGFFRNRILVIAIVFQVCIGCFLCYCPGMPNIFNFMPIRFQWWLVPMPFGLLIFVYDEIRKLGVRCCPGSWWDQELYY
H^+,K^+-ATPase D136A, sequence (P18434 whole entry partner): as the sequence (P18434 whole entry partner) above
H^+,K^+-ATPase D136I, sequence (P19156 whole entry D137I): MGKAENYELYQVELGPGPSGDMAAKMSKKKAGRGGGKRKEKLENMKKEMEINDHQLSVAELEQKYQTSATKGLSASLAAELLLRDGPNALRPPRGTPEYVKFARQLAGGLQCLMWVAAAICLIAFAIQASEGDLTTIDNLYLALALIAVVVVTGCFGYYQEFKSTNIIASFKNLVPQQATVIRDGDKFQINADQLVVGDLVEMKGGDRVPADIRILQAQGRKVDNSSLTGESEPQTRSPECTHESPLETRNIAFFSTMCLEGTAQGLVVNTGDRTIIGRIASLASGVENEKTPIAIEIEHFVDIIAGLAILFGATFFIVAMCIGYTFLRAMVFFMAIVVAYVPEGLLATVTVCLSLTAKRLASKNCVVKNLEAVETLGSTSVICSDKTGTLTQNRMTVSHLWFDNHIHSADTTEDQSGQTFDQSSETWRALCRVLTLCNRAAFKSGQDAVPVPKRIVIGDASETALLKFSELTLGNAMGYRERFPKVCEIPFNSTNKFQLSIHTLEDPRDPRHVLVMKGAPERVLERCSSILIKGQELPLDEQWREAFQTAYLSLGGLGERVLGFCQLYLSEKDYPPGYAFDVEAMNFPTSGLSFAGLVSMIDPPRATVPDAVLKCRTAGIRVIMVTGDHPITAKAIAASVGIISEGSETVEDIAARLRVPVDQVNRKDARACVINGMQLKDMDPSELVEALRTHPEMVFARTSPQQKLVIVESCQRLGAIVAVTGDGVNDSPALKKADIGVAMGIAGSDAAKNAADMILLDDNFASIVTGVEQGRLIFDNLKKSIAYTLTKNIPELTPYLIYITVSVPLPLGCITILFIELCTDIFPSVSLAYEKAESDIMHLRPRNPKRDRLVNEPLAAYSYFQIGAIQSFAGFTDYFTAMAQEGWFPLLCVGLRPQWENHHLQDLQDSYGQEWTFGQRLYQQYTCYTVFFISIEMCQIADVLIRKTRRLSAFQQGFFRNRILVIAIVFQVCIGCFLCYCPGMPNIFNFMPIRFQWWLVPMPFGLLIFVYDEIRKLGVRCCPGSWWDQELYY
H^+,K^+-ATPase D136I, sequence (P18434 whole entry partner): as the sequence (P18434 whole entry partner) above

Cc1nc2c3c(ccn2c1C)[C@@H](O)[C@H](O)[C@@H](c1ccccc1)N3 [BYK99]
Ki (H^+,K^+-ATPase L809F): 0.85 ± 0.13 µM | -fold increase in K i compared with wild-type (H^+,K^+-ATPase L809F; L809F): 150 fold | Ki (H^+,K^+-ATPase N138D): 0.0077 ± 0.0007 µM | -fold increase in K i compared with wild-type (H^+,K^+-ATPase N138D; N138D): 1.3 fold | Ki (H^+,K^+-ATPase D136F): 0.0059 ± 0.0007 µM | -fold increase in K i compared with wild-type (H^+,K^+-ATPase D136F; D136F): 1.0 fold | Ki (H^+,K^+-ATPase Y140I): 0.0043 ± 0.0005 µM | -fold increase in K i compared with wild-type (H^+,K^+-ATPase Y140I; Y140I): 0.7 fold | Ki (H^+,K^+-ATPase A335V): > 1 µM | -fold increase in K i compared with wild-type (H^+,K^+-ATPase A335V; A335V): > 170 fold | Ki (H^+,K^+-ATPase Y799A): > 1 µM | -fold increase in K i compared with wild-type (H^+,K^+-ATPase Y799A; Y799A): > 170 fold | IC50 (H^+,K^+-ATPase): 0.077 µM | Ki (H^+,K^+-ATPase D136A): 0.01 ± 0.001 µM | -fold increase in K i compared with wild-type (H^+,K^+-ATPase D136A; D136A): 1.7 fold | Ki (H^+,K^+-ATPase D136I): 0.015 ± 0.002 µM | -fold increase in K i compared with wild-type (H^+,K^+-ATPase D136I; D136I): 2.6 fold | Ki (H^+,K^+-ATPase D136L): 0.0053 ± 0.0005 µM | -fold increase in K i compared with wild-type (H^+,K^+-ATPase D136L; D136L): 0.9 fold | Ki [1]: > 1 µM | -fold increase in K i compared with wild-type ([1]; A335C/C813A): > 170 fold | -fold increase in K i compared with wild-type (H^+,K^+-ATPase WT): 1.0 fold | Ki (H^+,K^+-ATPase WT; global fitting, mean ± SEM): 0.0058 ± 0.0006 µM | Ki (H^+,K^+-ATPase D137F): 0.64 ± 0.11 µM | -fold increase in K i compared with wild-type (H^+,K^+-ATPase D137F; D137F): 110 fold | Ki (H^+,K^+-ATPase Y140L): 0.0053 ± 0.0004 µM | -fold increase in K i compared with wild-type (H^+,K^+-ATPase Y140L; Y140L): 0.9 fold | Ki (H^+,K^+-ATPase Y140A): 0.025 ± 0.003 µM | -fold increase in K i compared with wild-type (H^+,K^+-ATPase Y140A; Y140A): 4.3 fold | Ki (H^+,K^+-ATPase N138I): 0.034 ± 0.008 µM | -fold increase in K i compared with wild-type (H^+,K^+-ATPase N138I; N138I): 5.9 fold | Ki (H^+,K^+-ATPase L800F): 0.059 ± 0.005 µM | -fold increase in K i compared with wild-type (H^+,K^+-ATPase L800F; L800F): 10 fold | Ki (H^+,K^+-ATPase D137L): 0.22 ± 0.04 µM | -fold increase in K i compared with wild-type (H^+,K^+-ATPase D137L; D137L): 38 fold | Ki (H^+,K^+-ATPase A339S): 0.021 ± 0.001 µM | -fold increase in K i compared with wild-type (H^+,K^+-ATPase A339S; A339S): 3.6 fold | Ki (H^+,K^+-ATPase D137N): 0.45 ± 0.1 µM | -fold increase in K i compared with wild-type (H^+,K^+-ATPase D137N; D137N): 78 fold | fold lower affinity than WT (H^+,K^+-ATPase D137N; D137N vs WT): more than 60 fold | Ki (H^+,K^+-ATPase L139A): 0.014 ± 0.002 µM | -fold increase in K i compared with wild-type (H^+,K^+-ATPase L139A; L139A): 2.4 fold | Ki (H^+,K^+-ATPase L139I): 0.0026 ± 0.0002 µM | -fold increase in K i compared with wild-type (H^+,K^+-ATPase L139I; L139I): 0.4 fold | Ki (H^+,K^+-ATPase V331A): 0.047 ± 0.003 µM | -fold increase in K i compared with wild-type (H^+,K^+-ATPase V331A; V331A): 8.1 fold | Ki (H^+,K^+-ATPase A125F): 0.012 ± 0.001 µM | -fold increase in K i compared with wild-type (H^+,K^+-ATPase A125F; A125F): 2.1 fold | Ki (H^+,K^+-ATPase Y140F): 0.035 ± 0.006 µM | -fold increase in K i compared with wild-type (H^+,K^+-ATPase Y140F; Y140F): 6.0 fold | Ki (H^+,K^+-ATPase F332I): 0.0089 ± 0.0007 µM | -fold increase in K i compared with wild-type (H^+,K^+-ATPase F332I; F332I): 1.5 fold
